This note sets out measurements from ChEMBL document CHEMBL1143158, “Tritium radiolabelling of PB28, a potent sigma-2 receptor ligand: pharmacokinetic and pharmacodynamic characterization” (Bioorg Med Chem Lett, 2008).

The target in test [1] is Sigma non-opioid intracellular receptor 1 (Rattus norvegicus, UniProt Q9R0C9). Put plainly: Binding affinity to sigma 1 receptor in rat liver membrane. It is filed as cell membranes.
Test [2] in a line: Binding affinity to sigma 2 receptor in rat liver membrane by saturation analysis. In kind it is cell membranes.
Test [3] is described as follows: Displacement of [3H]PB28 from sigma 2 receptor in rat liver membrane. It is filed as cell membranes. For orientation: Displacement assays read how much labelled ligand stays bound in the presence of the test substance.
Test [4] is described as follows: Displacement of [3H]DTG from sigma 2 receptor in rat liver membrane. In kind it is cell membranes.
The species named for the next test is Rattus norvegicus. Put plainly: Selectivity for rat sigma 2 receptor over rat sigma1 receptor. The note with it: tested as the 3H-labelled form.

Sigma non-opioid intracellular receptor 1, sequence (Q9R0C9 whole entry): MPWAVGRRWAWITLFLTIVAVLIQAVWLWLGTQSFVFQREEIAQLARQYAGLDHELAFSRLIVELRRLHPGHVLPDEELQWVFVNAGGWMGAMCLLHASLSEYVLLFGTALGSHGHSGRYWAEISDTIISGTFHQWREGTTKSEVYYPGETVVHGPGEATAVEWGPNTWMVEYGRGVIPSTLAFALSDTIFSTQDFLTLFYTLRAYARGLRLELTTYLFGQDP

As to `[3H]C1CCCCC1([3H])N1CCN(CCCC2CCCc3c(OC)cccc32)CC1` (centres undefined), the affinity in test [1] corresponds to a Ki of 13.6 nM. The compound also yielded a Kd in test [2] of 0.12 nM.
Compound `[3H]C([3H])([3H])Oc1ccc(C)cc1C(=O)NCCCCN1CCc2cc(OC)c(OC)cc2C1` yielded a Kd in test [2] of 0.66 nM.
Compound `Cc1ccccc1NC(=N)Nc1ccccc1C` [DITOLYLGUANIDINE] showed an inhibition constant (Ki) in test [3] of 42 nM.
On to `O=C(CCCN1CCC(O)(c2ccc(Cl)cc2)CC1)c1ccc(F)cc1` [HALOPERIDOL], for which the values for the Ki in test [3] and in test [4] were 5.85 nM and 7.38 nM, respectively.
As to `COc1cccc2c1CCCC2CCCN1CCN(C2CCCCC2)CC1` (centres undefined), the figures for the Ki in test [3] and in test [4] were 0.57 nM and 0.34 nM, respectively. Besides, the Selectivity ratio in the test filed under Rattus norvegicus turned out to be 40.

As usually defined, the Ki is a dissociation constant, usually derived from enzyme kinetics or from competition with a known ligand. One may read the Kd as the equilibrium constant for the complex coming apart. A high value points to lower affinity.
